Laboratory results as given in patent EP4722228A1, “NEW COMPOUND TARGETING MUSK AND USE THEREOF” (The University of Tokyo, priority 2023, dated 2024).
Like-named read-outs stand apart in the source and are kept apart here. Numbered stars: 1 amine (or outer) side, 2 acyl side, 3 side chain; on linkers, the order of the positions; unused ones are H or OH. Bridge positions count the residues as written; N and C are the ends. Square brackets hold non-standard residues; d marks the D form. Peptide text beside a SMILES is read from it. I, II: the chains in the order shown. * marks the point of attachment. X1 = O=C(CCN1C(=O)CC([*:1])C1=O)NCCOCCOCCOCCOCCOCCOCCOCCOCCOCCOCCOCCNC(=O)CCN1C(=O)CC([*:2])C1=O; X2 = O=C(CCN1C(=O)CC([*:1])C1=O)NCCCOCCOCCOCCCNC(=O)CCN1C(=O)CC([*:2])C1=O; ClAc = O=C(CCl)*

Target: T1, human MuSK (Homo sapiens, UniProt O15146)
T1 construct: DNA corresponding to the extracellular portion (amino acids 1-493) was amplified by a PCR method; made in house; host or cells: Expi293F cells
T1 sequence (O15146 24-493): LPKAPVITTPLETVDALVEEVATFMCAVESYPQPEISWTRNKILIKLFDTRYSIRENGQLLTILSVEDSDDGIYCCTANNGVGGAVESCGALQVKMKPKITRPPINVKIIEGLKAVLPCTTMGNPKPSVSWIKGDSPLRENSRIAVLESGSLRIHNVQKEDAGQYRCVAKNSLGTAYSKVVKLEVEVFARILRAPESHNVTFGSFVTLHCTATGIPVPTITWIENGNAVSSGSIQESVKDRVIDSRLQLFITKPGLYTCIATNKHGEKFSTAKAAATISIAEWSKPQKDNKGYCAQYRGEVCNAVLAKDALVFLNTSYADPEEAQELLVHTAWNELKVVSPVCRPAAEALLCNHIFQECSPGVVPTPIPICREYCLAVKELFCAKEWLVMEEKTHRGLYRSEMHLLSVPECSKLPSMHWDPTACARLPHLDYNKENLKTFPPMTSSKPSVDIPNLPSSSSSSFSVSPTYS
Experiment: SPR binding activity test to human MuSK (Biacore)
Procedure: The human MuSK protein (extracellular portion) was prepared as a recombinant protein as follows. Using a Flexi clone (FXC31275, Promega Corporation) encoding Human MuSK isoform 1 precursor (NCBI Reference Sequence: NP_005583.1) as a template, DNA corresponding to the extracellular portion (amino acids 1-493) was amplified by a PCR method. XhoI and EcoRI restriction enzyme recognition sequences were added to both the 5' and 3' ends of the amplified DNA sequence, and these were used for insertion into the multiple cloning site of a pCAG-Neo hIgG1-Fc plasmid (Fujifilm Wako Pure Chemical Corporation). This plasmid (pCAG-Neo hMuSK-Fc) enables expression of a chimeric protein of the secretory human MuSK extracellular portion and human IgG1 Fc (hMuSK-Fc; molecular weight of approximately 200 kDa) in animal cells. In practice, ExpiFectamine 293 reagent (Invitrogen) was used to transfect the pCAG-Neo hMuSK-Fc plasmid into Expi293F cells (Invitrogen), and shaking culture was carried out (for 6 days) in an incubator containing 8% CO2. Next, the culture supernatant was collected, centrifuged, and sterilized by filtration through a 0.22 µm filter. The obtained culture supernatant was subjected to Protein G purification, and finally, a purified hMuSK-Fc sample with 99.96% purity (AKTA-FPLC analysis) was obtained.
The strength of binding between MuSK and the cyclic peptides was evaluated by quantitatively measuring the binding kinetics (binding affinity (dissociation constant) KD) of the cyclic peptides to MuSK immobilized on a sensor chip via an Fc tag, using surface plasmon resonance (SPR).
According to the standard immobilization protocol provided by the manufacturer, Fc-tagged human/mouse/rat MuSK was immobilized on a Protein G chip or a Protein A chip (Cytiva). A running buffer for the monomer/dimer peptides contained 0.010 M phosphate, 0.14 M NaCl, 0.0027 M KCl, 0.05% (v/v) Tween 20, and 0.1% (v/v) DMSO. A running buffer for the monomer/dimer U-bodies contained 0.010 M phosphate, 0.14 M NaCl, 0.0027 M KCl, and 0.05% (v/v) Tween 20. A series of concentrations of each monomer peptide, dimer peptide, monomer U-body, and dimer U-body was injected as analytes. A 1:1 binding fitting analysis was applied using Biacore evaluation software, and ka, kd, and KD values were determined.
Fc-tagged human MuSK was prepared according to the procedure described in Example 1(1). In addition, Fc-tagged mouse MuSK was used by expressing a nucleotide sequence encoding the Fc-tagged mouse MuSK extracellular domain (SEQ ID NO: 34). In addition, Fc-tagged rat MuSK was used as a chimeric protein of rat MuSK and an Fc protein, namely, Recombinant Rat MuSK Fc Chimera Protein (catalog number: 9847-MK-050, R&D Systems).
The affinity of the U-bodies and their complexes obtained as described above for MuSK of human, rat, and mouse was evaluated (binding activity test). The test was carried out according to the procedure described in Example 1(3). However, for the complexes of U-bodies, surface plasmon resonance (SPR) analysis was carried out using a Biacore 8K (Cytiva).

[1] = 25°C, Fc-tagged human MuSK immobilized, monomer peptides, read-out: Binding activity (KD)

Structure (SMILES) | Kd [1] [nM] | koff (human MuSK, peptide homodimers) [s⁻¹] | kon (human MuSK, peptide homodimers) [M⁻¹ s⁻¹] | Kd (human MuSK, peptide homodimers, read-out: Kd) [nM]
CC(=O)N[C@H](Cc1ccc(O)cc1)C(=O)N[C@@H](CC(C)C)C(=O)N1CCC[C@H]1C(=O)N[C@@H](CCC(=O)O)C(=O)N[C@@H](Cc1ccccc1)C(=O)N[C@@H](CO)C(=O)N[C@@H](Cc1c[nH]c2ccccc12)C(=O)N1CCC[C@H]1C(=O)N[C@@H](CCC(=O)O)C(=O)N[C@@H](CO)C(=O)N[C@@H](Cc1ccccc1)C(=O)N[C@H](C(=O)N[C@@H](CC(C)C)C(=O)N[C@@H](Cc1ccccc1)C(=O)N[C@@H](CC(C)C)C(=O)N[C@@H](CCCNC(=N)N)C(=O)N[C@@H](CCC(N)=O)C(=O)N[C@@H](CCCNC(=N)N)C(=O)N[C@@H](CCC(N)=O)C(=O)N[C@@H](CCCNC(=N)N)C(=O)N[C@@H](CCC(N)=O)C(=O)N[C@@H](CC(C)C)C(=O)NCC(=O)N[C@@H](CCCNC(=N)N)C(=O)NCC(=O)N[C@@H](C)C(=O)N[C@@H](CCC(=O)O)C(N)=O)C(C)C [MuSK1Ac] (Ac-[dY]LPEFSWPESFVLFLRQRQRQLGRGAE-NH2) | 1.6 |  |  | 
CC(C)C[C@H](NC(=O)[C@H](CCC(N)=O)NC(=O)[C@H](CCCNC(=N)N)NC(=O)[C@H](CCC(N)=O)NC(=O)[C@H](CCCNC(=N)N)NC(=O)[C@H](CCC(N)=O)NC(=O)[C@H](CCCNC(=N)N)NC(=O)[C@H](CC(C)C)NC(=O)[C@H](Cc1ccccc1)NC(=O)[C@H](CC(C)C)NC(=O)[C@@H](NC(=O)[C@H](Cc1ccccc1)NC(=O)[C@H](CO)NC(=O)[C@H](CCC(=O)O)NC(=O)[C@@H]1CCCN1C(=O)[C@H](Cc1c[nH]c2ccccc12)NC(=O)[C@H](CO)NC(=O)[C@H](Cc1ccccc1)NC(=O)[C@H](CCC(=O)O)NC(=O)[C@@H]1CCCN1C(=O)[C@H](CC(C)C)NC(=O)[C@@H](Cc1ccc(O)cc1)NC(=O)CCl)C(C)C)C(=O)NCC(=O)N[C@@H](CCCNC(=N)N)C(=O)NCC(=O)N[C@@H](C)C(=O)N[C@@H](CCC(=O)O)C(N)=O [MuSK1] (ClAc-[dY]LPEFSWPESFVLFLRQRQRQLGRGAE-NH2) | 2.2 |  |  | 
CC(C)C[C@@H]1NC(=O)[C@H](CC(C)C)NC(=O)[C@H](CO)NC(=O)[C@H](C(C)C)NC(=O)[C@H](C(C)C)NC(=O)[C@H](CC(N)=O)NC(=O)[C@H]([C@@H](C)O)NC(=O)[C@@H]2CCCN2C(=O)[C@H](Cc2ccccc2)NC(=O)[C@@H](Cc2ccc(O)cc2)NC(=O)CSC[C@@H](C(=O)N[C@@H](CSC2CC(=O)N(CCC(=O)NCCCOCCOCCOCCCNC(=O)CCN3C(=O)CC(SC[C@H](NC(=O)[C@@H]4CSCC(=O)N[C@H](Cc5ccc(O)cc5)C(=O)N[C@@H](Cc5ccccc5)C(=O)N5CCC[C@H]5C(=O)N[C@@H]([C@@H](C)O)C(=O)N[C@@H](CC(N)=O)C(=O)N[C@@H](C(C)C)C(=O)N[C@@H](C(C)C)C(=O)N[C@@H](CO)C(=O)N[C@@H](CC(C)C)C(=O)N[C@@H](CC(C)C)C(=O)N[C@@H](CCCCN)C(=O)N[C@@H](CO)C(=O)N4)C(N)=O)C3=O)C2=O)C(N)=O)NC(=O)[C@H](CO)NC(=O)[C@H](CCCCN)NC1=O (some centres unmarked) [MuSK4 PEG3 dimer] (I: {CH2CO}-[dY]FPTNVVSLLKSCC-NH2 / II: {CH2CO}-[dY]FPTNVVSLLKSCC-NH2; linker I:14-II:14 via X2; thioether I:N-I:13, II:N-II:13) |  | 0.0044 | 650000 | 
CC(C)C[C@@H]1NC(=O)[C@H](CC(C)C)NC(=O)[C@H](CO)NC(=O)[C@H](C(C)C)NC(=O)[C@H](C(C)C)NC(=O)[C@H](CC(N)=O)NC(=O)[C@H]([C@@H](C)O)NC(=O)[C@@H]2CCCN2C(=O)[C@H](Cc2ccccc2)NC(=O)[C@@H](Cc2ccc(O)cc2)NC(=O)CSC[C@@H](C(=O)N[C@@H](CSC2CC(=O)N(CCC(=O)NCCOCCOCCOCCOCCOCCOCCOCCOCCOCCOCCOCCNC(=O)CCN3C(=O)CC(SC[C@H](NC(=O)[C@@H]4CSCC(=O)N[C@H](Cc5ccc(O)cc5)C(=O)N[C@@H](Cc5ccccc5)C(=O)N5CCC[C@H]5C(=O)N[C@@H]([C@@H](C)O)C(=O)N[C@@H](CC(N)=O)C(=O)N[C@@H](C(C)C)C(=O)N[C@@H](C(C)C)C(=O)N[C@@H](CO)C(=O)N[C@@H](CC(C)C)C(=O)N[C@@H](CC(C)C)C(=O)N[C@@H](CCCCN)C(=O)N[C@@H](CO)C(=O)N4)C(N)=O)C3=O)C2=O)C(N)=O)NC(=O)[C@H](CO)NC(=O)[C@H](CCCCN)NC1=O (some centres unmarked) [MuSK4 PEG11 dimer] (I: {CH2CO}-[dY]FPTNVVSLLKSCC-NH2 / II: {CH2CO}-[dY]FPTNVVSLLKSCC-NH2; linker I:14-II:14 via X1; thioether I:N-I:13, II:N-II:13) |  | 0.0056 | 810000 | 6.9
CC(C)C[C@@H]1NC(=O)[C@H](CO)NC(=O)[C@H](C)NC(=O)[C@H](C(C)C)NC(=O)[C@H](C(C)C)NC(=O)[C@H](CC(N)=O)NC(=O)[C@H]([C@@H](C)O)NC(=O)[C@H](Cc2c[nH]cn2)NC(=O)[C@H](Cc2ccc(O)cc2)NC(=O)[C@H](CO)NC(=O)[C@@H]2CCCN2C(=O)[C@@H](Cc2ccc(O)cc2)NC(=O)CSC[C@@H](C(=O)N[C@@H](CSC2CC(=O)N(CCC(=O)NCCCOCCOCCOCCCNC(=O)CCN3C(=O)CC(SC[C@H](NC(=O)[C@@H]4CSCC(=O)N[C@H](Cc5ccc(O)cc5)C(=O)N5CCC[C@H]5C(=O)N[C@@H](CO)C(=O)N[C@@H](Cc5ccc(O)cc5)C(=O)N[C@@H](Cc5c[nH]cn5)C(=O)N[C@@H]([C@@H](C)O)C(=O)N[C@@H](CC(N)=O)C(=O)N[C@@H](C(C)C)C(=O)N[C@@H](C(C)C)C(=O)N[C@@H](C)C(=O)N[C@@H](CO)C(=O)N[C@@H](CC(C)C)C(=O)N[C@@H](CCCCN)C(=O)N[C@@H](CCCNC(=N)N)C(=O)N4)C(N)=O)C3=O)C2=O)C(N)=O)NC(=O)[C@H](CCCNC(=N)N)NC(=O)[C@H](CCCCN)NC1=O (some centres unmarked) [MuSK7 PEG3 dimer] (I: {CH2CO}-[dY]PSYHTNVVASLKRCC-NH2 / II: {CH2CO}-[dY]PSYHTNVVASLKRCC-NH2; linker I:16-II:16 via X2; thioether I:N-I:15, II:N-II:15) |  | 0.00034 | 540000 | 
CC[C@H](C)[C@@H]1NC(=O)[C@H](CC(N)=O)NC(=O)[C@H](C(C)C)NC(=O)[C@H](Cc2ccc(O)cc2)NC(=O)CNC(=O)[C@@H]2CCCN2C(=O)[C@H](CCC(N)=O)NC(=O)[C@H](CC(C)C)NC(=O)[C@H](Cc2ccc(O)cc2)NC(=O)[C@H](Cc2c[nH]c3ccccc23)NC(=O)[C@@H](Cc2ccc(O)cc2)NC(=O)CSC[C@@H](C(=O)N[C@@H](CSC2CC(=O)N(CCC(=O)NCCCOCCOCCOCCCNC(=O)CCN3C(=O)CC(SC[C@H](NC(=O)[C@@H]4CSCC(=O)N[C@H](Cc5ccc(O)cc5)C(=O)N[C@@H](Cc5c[nH]c6ccccc56)C(=O)N[C@@H](Cc5ccc(O)cc5)C(=O)N[C@@H](CC(C)C)C(=O)N[C@@H](CCC(N)=O)C(=O)N5CCC[C@H]5C(=O)NCC(=O)N[C@@H](Cc5ccc(O)cc5)C(=O)N[C@@H](C(C)C)C(=O)N[C@@H](CC(N)=O)C(=O)N[C@@H]([C@@H](C)CC)C(=O)N[C@@H](C(C)C)C(=O)N[C@@H]([C@@H](C)O)C(=O)N[C@@H](CO)C(=O)N[C@@H](Cc5ccc(O)cc5)C(=O)N[C@@H](Cc5c[nH]cn5)C(=O)N4)C(N)=O)C3=O)C2=O)C(N)=O)NC(=O)[C@H](Cc2c[nH]cn2)NC(=O)[C@H](Cc2ccc(O)cc2)NC(=O)[C@H](CO)NC(=O)[C@H]([C@@H](C)O)NC(=O)[C@H](C(C)C)NC1=O (some centres unmarked) [MuSK9 PEG3 dimer] (I: {CH2CO}-[dY]WYLQPGYVNIVTSYHCC-NH2 / II: {CH2CO}-[dY]WYLQPGYVNIVTSYHCC-NH2; linker I:18-II:18 via X2; thioether I:N-I:17, II:N-II:17) |  | 0.0017 | 780000 | 
